The record followed here is patent publication US6495699B2, “Metalloproteinase inhibitors, pharmaceutical compositions containing them, and their use” (Agouron Pharmaceuticals Inc., priority 1996, dated 2002).

Data set [1] has as its target T1, catalytic domain of human stromelysin (Hsln) (Homo sapiens, UniProt P08254).
T1 construct: The catalytic domain of human stromelysin (Hsln) was obtained by expression and purification of a C-terminally truncated prostromelysin-1; made in house; host or cells: E. coli BL21
Description: Fluorometric MCA-peptide hydrolysis assay, stromelysin (Hsln). Format: biochemical. Particulars: apparent Ki; 10 μM MCA peptide substrate, 37° C., pH 7.5; read-out: Hsln (Ki,app). In a few lines:
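APMA-activated E. coli–expressed catalytic domain, with 10 μM MCA-Pro-Leu-Gly-Leu-DPA-Ala-Arg-NH2 at 37 °C. Buffer was pH 7.5 Tricine with NaCl, CaCl2, zinc acetate and 2% final DMSO; fluorescence read at ex 328/em 393 nm over 60 min. Ki,app from steady-state rates fitted to competitive or Morrison tight-binding equations.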

The target in data set [2] is T2, human collagenase-3 (Coll3) (Homo sapiens, UniProt P45452).
T2 construct: the catalytic domain was liberated by treatment with 2 mM APMA at room temperature overnight; ubiquitin (N, cleaved yes); made in house; host or cells: E. coli
Description: Fluorometric MCA-peptide hydrolysis assay, collagenase-3 (Coll3). Particulars: apparent Ki; 10 μM MCA peptide substrate, 37° C., pH 7.5; read-out: Coll3 (Ki,app). Format: biochemical.

Data set [3] in a line: Determination of inhibitor concentration in plasma after oral dosing. Format: in vivo, Sprague Dawley rats. Particulars: Sprague-Dawley, rat plasma, dose 50 mg/kg, vehicle A (molar equivalent of HCl in water). On the procedure: The dosing solution consisted of the inhibitor dissolved in either a molar equivalent of HCl in water (vehicle A), in 60% aq. propylene glycol (vehicle B), or in 2.8 mg/mL sodium bicarbonate in 60% aqueous propylene glycol (vehicle C), yielding a final concentration that ranged from 10-15 mg/ml. Sprague Dawley rats (Hilltop Lab Animals, Scottsdale, Pa.) were dosed as a function of drug weight per body weight, usually 50 mgper kg. Blood was taken from the rats and centrifuged, and the plasma was stored in the freezer. Drug was extracted from a 50 μl plasma aliquot by adding 1 ml of acetonitrile, shaking for 2 minutes, centrifuging for 15 minutes at 4000 rpm, collecting the supernatant, and then evaporating it to dryness under a stream of nitrogen. The samples were reconstituted with 130 μl of mobile phase, shook for 2 minutes, and centrifuged for 15 minutes at 4000 rpm. The supernatant was collected and the samples were analyzed by injecting 100 μl of supernatant onto HPLC.
Quantitation of drug levels was accomplished by generating a standard curve of known drug amounts that were extracted from added plasma. Drug levels were plotted as a function of time and analyzed to provide area under the curve (AUC) and maximum concentration (Cmax) values.

Data set [4] deals with T3, human progelatinase A (GelA), catalytic and fibronectin-like portion (Homo sapiens, UniProt P08253).
T3 construct: The catalytic and fibronectin-like portion of human progelatinase A (GelA) was expressed as a fusion protein with ubiquitin; ubiquitin; made in house; host or cells: E. coli
T3 sequence (P08253 110-465 limits assumed): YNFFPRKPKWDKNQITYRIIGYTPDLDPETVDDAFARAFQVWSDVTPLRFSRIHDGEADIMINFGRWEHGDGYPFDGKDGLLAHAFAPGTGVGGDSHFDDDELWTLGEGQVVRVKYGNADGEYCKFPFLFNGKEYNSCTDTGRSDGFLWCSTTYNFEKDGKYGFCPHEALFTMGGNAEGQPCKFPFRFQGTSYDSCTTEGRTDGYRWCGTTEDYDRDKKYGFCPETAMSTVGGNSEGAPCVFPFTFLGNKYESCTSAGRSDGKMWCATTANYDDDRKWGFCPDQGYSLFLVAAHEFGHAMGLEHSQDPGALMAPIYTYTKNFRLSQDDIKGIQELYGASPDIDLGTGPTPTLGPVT
Description: Fluorometric MCA-peptide hydrolysis assay, gelatinase A (GelA). Format: biochemical. Particulars: apparent Ki; 10 μM MCA peptide substrate, 37° C., pH 7.5. In a few lines: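 E. coli-expressed ubiquitin fusion of human proGelA catalytic plus fibronectin-like domains, autoactivated; 10 μM MCA-Pro-Leu-Gly-Leu-DPA-Ala-Arg-NH2, pH 7.5 Tricine/NaCl/CaCl2/Zn buffer, 2% DMSO, 37° C, 60 min. Fluorescence 328/393 nm; steady-state rates fitted to competitive inhibition or Morrison tight-binding equation giving Ki,app (≈Ki since [S]<<Km).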

A short description of another data set: LogP. Format: physicochemical.
The next data set concerns the target T4, Human matrilysin (Matr) (Homo sapiens, UniProt P09237).
T4 construct: the catalytic domain was liberated by treatment with 2 mM APMA at 37° C. for 2 hours; ubiquitin (cleaved yes); made in house; host or cells: E. coli
T4 sequence (P09237 95-267): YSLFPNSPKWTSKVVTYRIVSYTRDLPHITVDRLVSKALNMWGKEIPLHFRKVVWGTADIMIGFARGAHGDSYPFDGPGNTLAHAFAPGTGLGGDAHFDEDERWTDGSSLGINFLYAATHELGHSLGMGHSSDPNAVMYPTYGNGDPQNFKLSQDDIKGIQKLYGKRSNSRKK
Description: Fluorometric MCA-peptide hydrolysis assay, matrilysin (Matr). Format: biochemical. Particulars: apparent Ki; 10 μM MCA peptide substrate, 37° C., pH 7.5; read-out: Matr (Ki,app). In short, it runs like this:
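Catalytic domain of E. coli-expressed human matrilysin assayed at 37° C, pH 7.5 Tricine buffer, 2% DMSO, with 10 μM MCA-Pro-Leu-Gly-Leu-DPA-Ala-Arg-NH2; fluorescence ex 328/em 393 nm over 60 min. Ki,app from steady-state rates fitted to competitive inhibition or Morrison tight-binding equation.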

Data set [5] concerns the target T5, fibroblast collagenase-1 catalytic domain (HFC) (Homo sapiens, UniProt P03956).
T5 construct: The catalytic domain of human collagenase-1 was expressed as a fusion protein with ubiquitin in E. coli; ubiquitin (cleaved yes); made in house; host or cells: E. coli
T5 sequence (P03956 100-269 limits assumed): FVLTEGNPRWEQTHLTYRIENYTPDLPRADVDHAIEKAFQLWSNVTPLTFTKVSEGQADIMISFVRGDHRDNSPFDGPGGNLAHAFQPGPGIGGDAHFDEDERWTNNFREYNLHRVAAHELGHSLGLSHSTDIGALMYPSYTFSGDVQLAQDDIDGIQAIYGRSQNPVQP
Description: Fluorometric MCA-peptide hydrolysis assay, fibroblast collagenase-1 (HFC). Format: biochemical. Particulars: apparent Ki; 10 μM MCA peptide substrate, 37° C., pH 7.5; read-out: HFC (Ki,app). In a few lines:
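Human collagenase-1 catalytic domain, expressed in E. coli as ubiquitin fusion, was assayed with 10 μM MCA-Pro-Leu-Gly-Leu-DPA-Ala-Arg-NH2 at 37 °C in Tricine pH 7.5, 2% DMSO, over 60 min (ex 328/em 393 nm). Ki,app came from steady-state rates fitted to competitive or Morrison tight-binding equations.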

T1 sequence (P08254 100-272 limits assumed): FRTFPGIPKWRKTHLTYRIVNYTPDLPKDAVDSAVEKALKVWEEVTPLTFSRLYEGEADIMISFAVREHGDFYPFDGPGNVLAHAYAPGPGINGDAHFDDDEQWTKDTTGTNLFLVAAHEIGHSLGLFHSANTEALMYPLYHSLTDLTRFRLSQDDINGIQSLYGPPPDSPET

As usually defined, the melting point is the temperature of the solid-liquid transition. As usually defined, the AUC is the area under the concentration-time curve, a measure of exposure. A word on the Cmax: it is the highest concentration seen after dosing. The term logP denotes a log measure of how a compound divides between an organic and an aqueous phase. A higher logP goes with a more lipophilic compound. Consider `CC(C)(C)[C@@H](CO)NC(=O)[C@@H](CC(=O)O)n1ccc(-c2ccc(-c3ccncc3)cc2)c1` [Example 5(a), N-[2,2-Dimethyl-1(S)-(hydroxymethyl)propyl]-3(R)-[3-[4-(pyridin-4-yl)phenyl]-1H-pyrrol-1-yl]succinamic Acid], for which the melting point fell in the range of 192 to 194 °C. The Ki in data set [1] was determined as 84 nM. In addition, in data set [2], the Ki came out at 1.8 nM. For the same compound, in data set [3], the AUC is 3520 ng·h/mL and the Cmax came to 1600 ng/mL. Further, in data set [4], the GelA (Ki,app) was 1.6 nM. In “LogP”, this compound came in with a log partition coefficient (logP) of 0.11.

Consider `CC(C)(C)[C@H](NC(=O)[C@@H](CC(=O)O)n1ccc(-c2ccc(-c3ccc(C(N)=O)cc3)cc2)c1)C(=O)Nc1ccncc1` [Example 5(f), 3(R)-[3-(4′-Carbamoylbiphenyl-4-yl)-1H-pyrrol-1-yl]-N-[2,2-dimethyl-1(S)-(N-(pyridin-4-yl)carbamoyl)propyl]succinamic Acid], for which the melting point fell in the range of 194 to 196 °C. For the same compound, the Ki in data set [1] worked out at 0.46 nM. The Ki at Human matrilysin (Matr) was determined as 2.1 nM. In addition, the Ki in data set [2] was determined as 0.012 nM. Further, in data set [5], the Ki stood at 818 nM. The GelA (Ki,app) in data set [4] was found to be 0.023 nM. The same compound had a logP in the data set “LogP” of 2.56.
